Entries after “also recorded” stand apart in the source; their conditions may differ.
Test system: PDE11A4/CyaB1-chimera
Test: Adenylate cyclase activity assay of PDE11A4/CyaB1-chimera (conversion of [α-32P]-ATP to cAMP)
Assay type: biochemical, human

Nc1nc2c(ncn2[C@@H]2O[C@@H]3COP(=O)(O)O[C@H]3[C@H]2O)c(=O)[nH]1 [cGMP]
% basal value (1 mM of cyclic nucleotide, relative to basal enzyme activity): 400%
Classification as PDE11A4-GAF agonist / antagonist (from dose-effect curve, FIG. 5): PDE11A4-GAF agonist; also recorded: selectively activates the GAF domain of PDE11 as agonist
